Assay results as given in DBAASP.
In brackets after ≈: the same amount, converted by molar mass.

Assays:
Experiment in all cases: ≥ marks a high value that may be exact or a test limit, other limits are often not marked, values filed in µg/mL are converted to µM
[1] = system: Candida albicans ATCC 2002
[2] = system: Escherichia coli ATCC 25922
[3] = system: Pseudomonas aeruginosa CMCCB 10104
[4] = system: Staphylococcus aureus ATCC 25923
Bacillus subtilis 168 = system: Bacillus subtilis 168
[5] = system: Candida albicans F7-39/IDE99
Escherichia coli B = system: Escherichia coli B
Pseudomonas aeruginosa = system: Pseudomonas aeruginosa
Staphylococcus aureus = system: Staphylococcus aureus
Escherichia coli JM109 = system: Escherichia coli JM109
[6] = system: Staphylococcus aureus ATCC 6538P
[7] = system: Candida albicans NCYC 1467
[8] = system: Escherichia coli NCTC 10418
[9] = system: Pseudomonas aeruginosa ATCC 27853
[10] = system: Staphylococcus aureus NCTC 10788
[11] = system: Staphylococcus aureus NCTC 12493
Escherichia coli W160-37 = system: Escherichia coli W160-37
Bacillus subtilis = system: Bacillus subtilis
Escherichia coli = system: Escherichia coli

Structure (SMILES)	MIC [1]	MIC [2]	MIC [3]	MIC [4]	MIC (Staphylococcus aureus)	also measured
CC[C@H](C)[C@H](NC(=O)[C@H](Cc1ccccc1)NC(=O)[C@@H](N)CCCN=C(N)N)C(=O)N[C@@H](Cc1ccc(O)cc1)C(=O)N[C@@H](CCSC)C(=O)N[C@@H](CCCCN)C(=O)NCC(=O)N[C@@H](Cc1ccccc1)C(=O)NCC(=O)N[C@@H](CCCCN)C(=O)N1CCC[C@H]1C(=O)N[C@@H](CCCN=C(N)N)C(=O)N[C@@H](Cc1ccccc1)C(=O)NCC(=O)N[C@@H](CCCCN)C(=O)N[C@@H](CCCN=C(N)N)C(=O)O [RFIYMKGFGKPRFGKR]	25.1 µM (≈ 50 µg/mL)	50.3 µM (≈ 100 µg/mL)	12.6 µM (≈ 25 µg/mL)	12.6 µM (≈ 25 µg/mL)		
CC[C@H](C)[C@H](NC(=O)[C@H](Cc1cnc[nH]1)NC(=O)[C@H](CCCCN)NC(=O)[C@H](CC(C)C)NC(=O)[C@H](CC(C)C)NC(=O)[C@H](CO)NC(=O)[C@H](CC(C)C)NC(=O)[C@H](Cc1c[nH]c2ccccc12)NC(=O)[C@H](CCCCN)NC(=O)CN)C(=O)N[C@@H](CC(C)C)C(=O)N[C@@H](CCCCN)C(N)=O [GKWLSLLKHILK]					5.5 µM (≈ 7.89 µg/mL)	MIC (Bacillus subtilis 168): 0.9 µM (≈ 1.29 µg/mL); MIC [5]: 8.7 µM (≈ 12.5 µg/mL); MIC (Escherichia coli B): 1.8 µM (≈ 2.58 µg/mL); MIC (Pseudomonas aeruginosa): 31.7 µM (≈ 45.5 µg/mL)
CC[C@H](C)[C@H](NC(=O)[C@H](C)NC(=O)[C@H](CC(C)C)NC(=O)[C@H](CS)NC(=O)[C@@H](N)Cc1cnc[nH]1)C(=O)NCC(=O)N[C@@H](CCCN=C(N)N)C(=O)N[C@@H](CCCN=C(N)N)C(N)=O [HCLAIGRR]					> 69.2 µM	MIC (Escherichia coli JM109): 25.9 µM; MIC [6]: 9.73 µM
CC[C@H](C)[C@H](NC(=O)[C@H](CC(C)C)NC(=O)[C@H](CCCCN)NC(=O)[C@H](C)NC(=O)[C@H](C)NC(=O)CNC(=O)[C@H](CCCCN)NC(=O)[C@@H](NC(=O)[C@H](CC(C)C)NC(=O)[C@@H](NC(=O)[C@H](Cc1ccccc1)NC(=O)[C@H](CC(C)C)NC(=O)CN)[C@@H](C)O)[C@@H](C)CC)C(=O)NCC(=O)N[C@@H](CCCCN)C(=O)N[C@H](C(=O)N[C@H](C(=O)N[C@@H](C)C(=O)N[C@@H](CCCCN)C(=O)N[C@@H](CCC(=O)O)C(=O)N[C@@H](C)C(=O)NCC(=O)N[C@@H](CCCCN)C(=O)N[C@H](C(=O)NCC(=O)N[C@@H](CCCCN)C(=O)N[C@@H](CC(C)C)C(=O)N[C@@H](CCC(=O)O)C(=O)N[C@@H](CCSC)C(=O)N[C@@H](C)C(=O)N[C@H]1CSSC[C@@H](C(=O)O)NC(=O)[C@H](CCC(N)=O)NC(=O)[C@H](CC(N)=O)NC(=O)[C@H]([C@@H](C)O)NC(=O)[C@H]([C@@H](C)CC)NC(=O)[C@H](CCCCN)NC1=O)[C@@H](C)O)[C@@H](C)O)[C@@H](C)O [GLFTLIKGAAKLIGKTTAKEAGKTGKLEMACKITNQC]	1.15 µM (≈ 4.4 µg/mL)	1.15 µM (≈ 4.4 µg/mL)	0.573 µM (≈ 2.2 µg/mL)	0.573 µM (≈ 2.2 µg/mL)		
CC[C@H](C)[C@H](NC(=O)CNC(=O)[C@@H](NC(=O)[C@H](C)NC(=O)[C@@H](NC(=O)[C@H](CCCCN)NC(=O)[C@@H]1CCCN1C(=O)[C@@H](NC(=O)[C@H](CC(C)C)NC(=O)[C@H](CO)NC(=O)[C@H](CC(C)C)NC(=O)[C@@H](N)Cc1ccccc1)[C@@H](C)CC)[C@@H](C)CC)[C@@H](C)O)C(=O)N[C@@H](C)C(=O)N[C@@H](C)C(=O)N[C@@H](CC(C)C)C(=O)N[C@@H](C)C(=O)N[C@@H](CCCCN)C(=O)N[C@@H](Cc1cnc[nH]1)C(=O)N[C@@H](CC(C)C)C(N)=O [FLSLIPKIATGIAALAKHL]						MIC [7]: 2 µM (≈ 3.95 µg/mL); MIC [8]: 8 µM (≈ 15.8 µg/mL); MIC [9]: 32 µM (≈ 63.2 µg/mL); MIC [10]: 2 µM (≈ 3.95 µg/mL); MIC [11]: 2 µM (≈ 3.95 µg/mL)
CC[C@H](C)[C@H](N)C(=O)N[C@@H](CC(C)C)C(=O)N1CCC[C@H]1C(=O)N[C@@H](Cc1ccccc1)C(=O)N[C@H](C(=O)N[C@@H](C)C(=O)NCC(=O)N[C@H](C(=O)N[C@@H](C)C(=O)N[C@@H](C)C(=O)N[C@@H](CCSC)C(=O)N[C@@H](CCC(=O)O)C(=O)N[C@@H](CCSC)C(=O)N[C@@H](CCC(=O)O)C(=O)N[C@@H](Cc1cnc[nH]1)C(=O)N[C@H](C(=O)N[C@@H](Cc1ccc(O)cc1)C(=O)N[C@H]1CSSC[C@@H](C(=O)O)NC(=O)[C@H](CCCCN)NC(=O)[C@H](CCCCN)NC(=O)[C@H](CO)NC(=O)[C@H](C)NC(=O)[C@H](C)NC1=O)C(C)C)C(C)C)C(C)C [ILPFVAGVAAMEMEHVYCAASKKC]	3.81 µM (≈ 9.79 µg/mL)	3.81 µM (≈ 9.79 µg/mL)	3.81 µM (≈ 9.79 µg/mL)	1.91 µM (≈ 4.9 µg/mL)		
CC[C@H](C)[C@H](N)C(=O)N[C@H](C(=O)N[C@@H](CO)C(=O)N[C@H](C(=O)N[C@H](C(=O)NCC(=O)N[C@@H](CCCCN)C(=O)N[C@@H](CC(C)C)C(=O)N[C@H](C(=O)N[C@@H](CCCCN)C(=O)N[C@@H](Cc1c[nH]c2ccccc12)C(=O)N[C@H](C(=O)N[C@H](C(=O)N[C@@H](CC(=O)O)C(=O)N[C@H](C(=O)N[C@H](C(=O)O)C(C)C)[C@@H](C)O)[C@@H](C)CC)[C@@H](C)CC)C(C)C)[C@@H](C)CC)[C@@H](C)O)[C@@H](C)CC [IISTIGKLVKWIIDTV]					18.8 µM (≈ 33.8 µg/mL)	MIC (Escherichia coli W160-37): 8 µM (≈ 14.4 µg/mL)
CC[C@H](C)[C@H](N)C(=O)N[C@@H](CC(C)C)C(=O)N1CCC[C@H]1C(=O)N[C@@H](Cc1c[nH]c2ccccc12)C(=O)N[C@@H](CCCCN)C(=O)N[C@@H](Cc1c[nH]c2ccccc12)C(=O)N1CCC[C@H]1C(=O)N[C@@H](Cc1ccccc1)C(=O)N[C@@H](Cc1ccccc1)C(=O)N1CCC[C@H]1C(=O)N[C@@H](Cc1c[nH]c2ccccc12)C(=O)N[C@@H](CCCN=C(N)N)C(=O)N[C@@H](CCCN=C(N)N)C(N)=O [ILPWKWPFFPWRR]						MIC (Escherichia coli JM109): 2 µM (≈ 3.66 µg/mL)
CC[C@H](C)[C@H](NC(=O)[C@H](CC(C)C)NC(=O)[C@H](CCC(N)=O)NC(=O)[C@@H](NC(=O)[C@H](C)NC(=O)CNC(=O)[C@H](CCCCN)NC(=O)[C@H](CC(C)C)NC(=O)[C@H](CC(C)C)NC(=O)[C@@H](NC(=O)[C@H](Cc1ccccc1)NC(=O)[C@@H](NC(=O)CN)C(C)C)[C@@H](C)O)[C@@H](C)O)C(=O)NCC(=O)N[C@@H](CCCCN)C(=O)N[C@H](C(=O)N[C@@H](CC(C)C)C(=O)NCC(=O)N[C@@H](CCCCN)C(=O)N[C@@H](CCC(=O)O)C(=O)N[C@@H](CC(C)C)C(=O)NCC(=O)N[C@@H](CCCCN)C(=O)N[C@H](C(=O)NCC(=O)N[C@@H](CC(C)C)C(=O)N[C@@H](CCC(=O)O)C(=O)N[C@@H](CC(C)C)C(=O)N[C@@H](CCSC)C(=O)N[C@@H](C)C(=O)N[C@H]1CSSC[C@@H](C(=O)O)NC(=O)[C@H](CCC(N)=O)NC(=O)[C@H](CC(N)=O)NC(=O)[C@H]([C@@H](C)O)NC(=O)[C@H]([C@@H](C)CC)NC(=O)[C@H](CCCCN)NC1=O)[C@@H](C)O)[C@@H](C)O [GVFTLLKGATQLIGKTLGKELGKTGLELMACKITNQC]	4.07 µM (≈ 15.8 µg/mL)	2.04 µM (≈ 7.9 µg/mL)	2.04 µM (≈ 7.9 µg/mL)	2.04 µM (≈ 7.9 µg/mL)		
CC[C@H](C)[C@H](N)C(=O)N[C@@H](CC(C)C)C(=O)N1CCC[C@H]1C(=O)N[C@@H](Cc1ccccc1)C(=O)N[C@H](C(=O)N[C@@H](C)C(=O)NCC(=O)N[C@H](C(=O)N[C@@H](C)C(=O)N[C@@H](C)C(=O)N[C@@H](CCC(=O)O)C(=O)N[C@@H](CCSC)C(=O)N[C@@H](CCSC)C(=O)N[C@@H](CCC(=O)O)C(=O)N[C@@H](Cc1cnc[nH]1)C(=O)N[C@H](C(=O)N[C@@H](Cc1ccc(O)cc1)C(=O)N[C@H]1CSSC[C@@H](C(=O)O)NC(=O)[C@H](CCCCN)NC(=O)[C@H](CCCCN)NC(=O)[C@H](CO)NC(=O)[C@H](C)NC(=O)[C@H](C)NC1=O)C(C)C)C(C)C)C(C)C [ILPFVAGVAAEMMEHVYCAASKKC]	5.1 µM (≈ 13.1 µg/mL)	5.1 µM (≈ 13.1 µg/mL)	20.4 µM (≈ 52.4 µg/mL)	10.2 µM (≈ 26.2 µg/mL)		
CC[C@H](C)[C@H](NC(=O)[C@H](Cc1cnc[nH]1)NC(=O)[C@H](CCCCN)NC(=O)[C@H](CC(C)C)NC(=O)[C@H](CC(C)C)NC(=O)[C@H](CO)NC(=O)[C@H](Cc1c[nH]c2ccccc12)NC(=O)[C@H](Cc1c[nH]c2ccccc12)NC(=O)[C@H](CCCCN)NC(=O)CN)C(=O)N[C@@H](CC(C)C)C(=O)N[C@@H](CCCCN)C(N)=O [GKWWSLLKHILK]					4.7 µM (≈ 7.09 µg/mL)	MIC (Bacillus subtilis): 0.6 µM (≈ 0.905 µg/mL); MIC [5]: 5.3 µM (≈ 7.99 µg/mL); MIC (Escherichia coli): 1.6 µM (≈ 2.41 µg/mL); MIC (Pseudomonas aeruginosa): 50 µM (≈ 75.4 µg/mL)
